Tests used:
[1] = test system: PC12 cells; test: Cell death under serum deprivation (apoptotic cell death detection ELISA), PC12; type: cell-based, rat; settings: PC12, 24 h serum deprivation, significant at 1 and 10 μM
Experimental: Two different neuronal cell lines were used: the rat PC12 and the human neuroblastoma SH-SY5Y cells.
PC12 cells, originated from rat pheochromocytoma, were grown to confluence in T75 flasks containing DMEM (1000 mg/l glucose) and supplemented with 5% FCS, 10% horse serum, and a mixture of 1% of penicillin/streptomycin/nystatin.
Cell cultures were incubated at 37° C. in a humid 5% CO2-95% air environment. For cell viability assays, cells were treated with various drugs in serum free media containing 0.1% BSA.
In order to test cell viability, PC12 cells and SH-SY5Y neuroblastoma cels were incubated under serum deprivation and were untreated or treated with rasagiline (0.1. 1 or 10 μM) for 24 hours.

[2] = test system: sAPPα; test: sAPPα release into medium of SH-SY5Y neuroblastoma cells; type: cell-based, human; settings: SH-SY5Y, 0.1, 1 and 10 μM, 3 h, versus untreated cells
Experimental: (§1) For the experiments, cells were seeded (2×10^6) onto 100-mm plates (for SH-SY5Y cells) or T75 flasks (for PC12 cells) in culture medium supplemented with full serum for 48 h. The cells were replaced with fresh medium containing 0.5% FCS for an additional 24 h (subconfluent culture), and then the experiments were performed in fresh medium containing 0.5% FCS for the indicated time periods at 37° C. After incubation with various drugs, the conditioned media were collected, centrifuged at 3500 g (10 min, 4° C.) to remove cell debris, and the cleared supernatants were concentrated 10-fold by lyophilization.
(vii) Determination of sAPP. Protein concentrations of cell lysates were assayed using Bradford reagent (Sigma Chemical). Equal amounts of volumes of conditioned medium, standardized to lysate protein, were subjected to […], using either the MAbs 22C11 or 6E10 in 50 mM Tris-HCl, pH 7.4, 150 mM NaCl, containing 0.05% Tween 20 and 1% BSA. Immunoreactivity was detected using anti-mouse IgG-conjugated with HRP and an enhanced chemiluminescence method (Amersham, Pharmacia Biotech, UK). Blots were developed for different times to span a linear range of response, and the relative intensity of immunoreactive bands on the exposed films was quantified by computer-assisted densitometry program (Quantity One, Bio-Rad, Hercules, Calif., USA).
It was of interest to determine whether rasagiline and other propargylamine-containing drugs also regulate APP processing. For this purpose, SH-SY5Y neuroblastoma cells were incubated for 3 h without or with 1 μM of various drugs (TV3326 and its S-isomer TV3279, rasagiline and its S-isomer TVP1022, selegiline, aminoindan), and sAPPα was measured in the media as described in Materials and Methods.
(§2) We further characterized, in detail, the effect of rasagiline on APP processing and the signaling pathways that are involved. Thus, SH-SY5Y neuroblastoma cells were incubated for 3 h without or with increasing concentrations of rasagiline (0.1, 1 and 10 μM), and sAPPα was measured in the media as described in Materials and Methods.
For the sAPPα release, SH-SY5Y neuroblastoma cells or PC12 cells were incubated for 3 h without or with increasing concentrations of propargylamine (0.1, 1 and 10 μM), and sAPPα was measured in the media as described in Materials and Methods.

[3] = test system: MAPK; test: MAPK activation (phospho-p44/42 MAPK immunoblot) in PC12 cells; type: cell-based, rat; settings: PC12, 0.1, 1 and 10 μM, 0.5 h
Experimental: (viii) Extracellular signal-regulated kinase (ERK) activity. The kinase activity of the ERKs was measured using the MAPK assay kit (Cell Signaling Technology) according to the manufacturer's protocol. In brief, for kinase activity assays, PC12 cells were grown in 6-well plates (5×10^5 cells/well). Eighteen to twenty-four hours before experiments, the medium was replaced with DMEM with 0.5% FCS and treated as described in the figures. Experimental treatments were performed in 1 ml medium containing 0.5% FCS, with the vehicle or test drugs and/or inhibitors at 37° C., as described in the figures. After treatment, reactions were stopped by placing cells on ice and aspirating the medium. Cells were harvested in 50 mM Tris-HCl, pH 8.0, 150 mM NaCl, 5 mM EDTA, 1 mM DTT, 1% Triton X-100, and protease- and phosphatase-inhibitor cocktails. Protein concentration was determined by the Bradford method. As described previously (Yogev-Falach et al., 2002), each cell lysate, containing 30 μg protein, was separated on 4-12% SDS-polyacrylamide electrophoresis gels, immunoblotted, and identified using phospho-p44/42 MAPK (Thr202/Tyr204) antibody or p44/42 MAPK antibody. Data are representative of three to six independent experiments.
To study the effect of rasagiline on MAPK activation, PC12 cells were treated for 0.5 h with increasing concentrations of rasagiline (0.1, 1 and 10 μM), and quantification of the phospho-MAPK blots were normalized using the total MAPK blots, or PC12 cells were preincubated for 15 min with vehicle alone, or with PD98059 (30 μM) or GF109203X (2.5 μM) and then incubated without or with rasagiline (10 μM) for 0.5 h. Aliquots of cell lysates were then subjected to immunoblot analysis and probed with anti-phospho-MAPK (top blots) and anti-MAPK (bottom blots).
For the effect of propargylamine on MAPK activation, PC12 cells were treated for 0.5 h with increasing concentrations of propargylamine (0.1, 1 and 10 μM). Aliquots of cell lysates were then subjected to immunoblot analysis and probed with anti-phospho-MAPK and anti-MAP kinase. Quantification of the phospho-MAPK were normalized using the total MAPK blots.

[4] = test system: sAPPα; test: sAPPα release into medium of PC12 cells; type: cell-based, rat; settings: PC12, 0.1, 1 and 10 μM, 3 h
Experimental: as §1
(vii) Determination of sAPP. […] Immunoreactivity was detected using anti-mouse IgG-conjugated with HRP and an enhanced chemiluminescence method (Amersham, Pharmacia Biotech, UK). Blots were developed for different times to span a linear range of response, and the relative intensity of immunoreactive bands on the exposed films was quantified by computer-assisted densitometry program (Quantity One, Bio-Rad, Hercules, Calif., USA).
as §2, with “Methods. […]” for “Methods.”

C#CCN [propargylamine]
cell death induced by serum deprivation [1]: significantly reduced cell death | sAPPα released into the medium [2]: significant, dose-dependent increase in sAPPα | MAPK phosphorylation [3]: induced MAPK phosphorylation | sAPPα released into the medium [4]: significant, dose-dependent increase in sAPPα
